The record followed here is patent US8394786B2, “Quinazoline derivatives” (Janssen Pharmaceutica N.V., priority 2003, dated 2013).

One test concerns SKOV3 cells. The test is described as follows: Serum starved proliferation assay on the ovarian carcinoma SKOV3 cells (C3). It counts as cell-based. Conditions: EGF stimulated (100 ng/ml, 72 hours, serum free) or 72 hours with compounds, MTT cell viability assay; for IC50: Homo sapiens, SK-OV-3, 72 h, read-out: SKOV3 cell (C3): pIC50 (converted). How it is done:
The ovarian carcinoma cell line (SKOV3) was used in an epidermal growth factor stimulated cell proliferation assay, to assess the inhibitory effect of the compounds on EGF in whole cells.
In a first step the SKOV3 cells were incubated for 24 hours in the presence of 10% FCS serum. In the second step the cells were incubated with the compounds to be tested in a serum free condition (37° C. and 5% (v/v) CO2) and subsequently stimulated for 72 hours with EGF at a final concentration of 100 ng/ml. The effect of the compounds on the EGF stimulation was finally assessed in a standard MTT cell viability assay.
Alternatively, the SKOV3 cells were incubated for 24 hours in the presence of 10% FCS serum. In the second step the cells were incubated for 72 hours with the compounds to be tested and the effect of the compounds on cell proliferation was finally assessed in a standard MTT cell viability assay.
(In general: Formazan colour is commonly taken as a measure of viable cells.)

Another test concerns the target EGFR (Homo sapiens, UniProt P00533). The test is described as follows: In vitro inhibition of EGFR, Flash Plate or glass-fiber filter technology (C2). The test is classed as biochemical. The arrangement: 0.5 μg EGFR-kinase domain/well. Conditions: EGFR-kinase domain, 5.0 μM unlabeled ATP; for IC50: read-out: Kinase activity.(C2): pIC50 (converted). As to the method: The in vitro inhibition of EGFR was assessed using either the Flash Plate technology or the glass-fiber filter technology as described by Davies, S. P. et al., Biochem J. (2000), 351; p. 95-105. The Flash Plate technology is generally described by B. A. Brown et al. in High Throughput Screening (1997), p. 317-328. Editor(s): Devlin, John P. Publisher: Dekker, New York, N.Y.
In the Flash Plate EGFR kinase reaction assay, a kinase substrate consisting of biotinylated poly(L-glutamic acid-L-tyrosine) (poly(GT)biotin), is incubated with the aforementioned protein in the presence of (^33P) radiolabeled ATP. (^33P) phosphorylation of the substrate is subsequently measured as light energy emitted using a streptavidin-coated Flash Plate (PerkinElmer Life Sciences) by trapping and quantifying the binding of the biotin tagged and radiolabeled substrate.
The EGFR kinase reaction is performed at 30° C. for 60 minutes in a 96-well microtiter FlashPlate (PerkinElmer Life Sciences). For each of the tested compounds a full dose response 1·10^−6M to 1·10^−10M has been performed. IRESSA° and Tarceva™ (erlotinib) were used as reference compounds. The 100 μl reaction volume contains 54.5 mM TrisHCl pH 8.0, 10 mM MgCl2, 100 μM Na3VO4, 5.0 μM unlabeled ATP, 1 mM DTT, 0.009% BSA, 0.8 μCi AT^33P, 0.35 μg/well poly(GT)biotin and 0.5 μg EGFR-kinase domain/well.
The reaction is stopped by aspirating the reaction mixture and washing the plate 3× with 200 μl wash/stop buffer (PBS+100 mM EDTA). After the final wash step 200 μl of wash/stop buffer was added to each well and the amount of phosphorylated (^33P) Poly(GT)biotin determined by counting (30 sec/well) in a microtiterplate scintillation counter.
In the glass-fiber filter technology EGFR kinase reaction assay, a kinase substrate consisting of poly(L-glutamic acid-L-tyrosine) (poly(GT)), is incubated with the aforementioned protein in the presence of (^33P) radiolabeled ATP. (^33P) Phosporylation of the substrate is subsequently measured as radioactivity bound on a glassfiber-filter.
The EGFR kinase reaction is performed at 25° C. for 10 minutes in a 96-well microtiterplate. For each of the tested compounds a full dose response 1·10^−6M to 1·10^−10M has been performed. IRESSA° and Tarceva™ (erlotinib) were used as reference compounds. The 25 μl reaction volume contains 60 mM TrisHCl pH 7.5, 3 mM MgCl2, 3 mM Mn Cl2, 3 μM Na3VO4, 50 μg/ml PEG20000, 5.0 μM unlabeled ATP, 1 mM DTT, 0.1 μCi AT^33P, 62.5 ng/well poly(GT) and 0.5 μg EGFR-kinase domain/well.
The reaction is stopped by adding 5 μl of a 3% phosphoric acid solution. 10 μl of the reaction mixture is then spotted onto a Filtermat A filter (Wallac) and washed 3 times for 5 min. in 75 mM phosphoric acid and 1 time for 5 min. in methanol prior to drying and quantification on the Typhoon (Amersham) using a LE phosphorage storage screen.

With “4,6-ethanediylidene-8H-pyrimido[4,5-b][6,1,12,15]benzoxatriazacyclooctadecine-12,15(16H)-dione, 20-chloro-9,10,11,13,14,17,22-heptahydro-23-methoxy-14-methyl- [Compound 139]”, in the test on SKOV3 cells, the “SKOV3 cell (C3): pIC50” value was determined as 6.8. Further, on EGFR, the “Kinase activity.(C2): pIC50” value amounted to 6.4.

Regarding “4,6-ethanediylidene-12H-pyrimido[4,5-b]pyrrolo[2,1-1][6,1,10,13]benzoxatriazacyclohexadecin-12-one, 20-chloro-19-fluoro-8,9,10,11,12a,13,14,15,17,22-decahydro-23-methoxy- [Compound 103]”, the “SKOV3 cell (C3): pIC50” value with SKOV3 cells was 7.3. Further, the “Kinase activity.(C2): pIC50” value on EGFR was 7.2.

Consider “4,6-ethenopyrimido[4,5-b][6,1,9,14]benzoxatriazacycloheptadecine-9,14(8H,15H)-dione, 19-chloro-10,11,12,13,16,21-hexahydro-22-methoxy- [Compound 150]”, for which the “SKOV3 cell (C3): pIC50” value with SKOV3 cells turned out to be 5.1. For the same molecule, the “Kinase activity.(C2): pIC50” value on EGFR is 7.7.

As for `COc1cc2ncnc3c2cc1OCCCCNCCc1ccc(Cl)cc1N3` [Compound 32, 4,6-ethanediylidenepyrimido[4,5-b][6,1,11]benzoxadiazacyclopentadecine, 17-chloro-8,9,10,11,12,13,14,19-octahydro-20-methoxy-], the IC50 was 288 nM in the test with SKOV3 cells and 3.98 nM at EGFR.

Consider `COc1cc2ncnc3c2cc1OCCNCC(=O)NCCCc1ccc(Cl)cc1N3` [Compound 42, 4,6-ethanediylidenepyrimido[4,5-b][6,1,9,12]benzoxatriazacycloheptadecin-12(13H)-one, 19-chloro-8,9,10,11,14,15,16,21-octahydro-22-methoxy-], for which the IC50 with SKOV3 cells was 63.1 nM; on EGFR, 501 nM.

With `COc1cc2ncnc3c2cc1OCCN(C(=O)CN(C)CCO)CC(=O)NCCCc1ccc(Cl)cc1N3` [Compound 43, 4,6-ethanediylidenepyrimido[4,5-b][6,1,9,12]benzoxatriazacycloheptadecin-12(13H)-one, 19-chloro-8,9,10,11,14,15,16,21-octahydro-10-[[(2-hydroxyethyl)methylamino]acetyl]-22-methoxy-], the figures for the IC50 in the test with SKOV3 cells and on EGFR were 501 nM and 79.4 nM, respectively.

Consider `COc1cc2ncnc3c2cc1OCCN(C(=O)CNC(CO)CO)CC(=O)NCCCc1ccc(Cl)cc1N3` [Compound 44, 4,6-ethanediylidenepyrimido[4,5-b][6,1,9,12]benzoxatriazacycloheptadecin-12(13H)-one, 19-chloro-8,9,10,11,14,15,16,21-octahydro-10-[[[2-hydroxy-1-(hydroxymethyl)ethyl]amino]acetyl]-22-methoxy-], for which the IC50 with SKOV3 cells was 7940 nM; at EGFR it was 631 nM.

Take `COc1cc2ncnc3c2cc1OCCN(C(=O)CN1CCOC(CO)C1)CC(=O)NCCCc1ccc(Cl)cc1N3` (stereo not shown) [Compound 45, 4,6-ethanediylidenepyrimido[4,5-b][6,1,9,12]benzoxatriazacycloheptadecin-12(13H)-one, 19-chloro-8,9,10,11,14,15,16,21-octahydro-10-[[2-(hydroxymethyl)-4-morpholinyl]acetyl]-22-methoxy-]: the figures for the IC50 with SKOV3 cells and at EGFR were 10000 nM and 158 nM, respectively.

In the case of `COc1cc2ncnc3c2cc1OCCN(C(=O)CNCCc1ccncc1)CC(=O)NCCCc1ccc(Cl)cc1N3` [Compound 46, 4,6-ethanediylidenepyrimido[4,5-b][6,1,9,12]benzoxatriazacycloheptadecin-12(13H)-one, 19-chloro-8,9,10,11,14,15,16,21-octahydro-22-methoxy-10-[[[2-(4-pyridinyl)ethyl]amino]acetyl]-], the figures for the IC50 with SKOV3 cells and on EGFR were 7940 nM and 200 nM, respectively.

In the case of `COc1cc2ncnc3c2cc1OCCN(C(=O)CN(C)CCN(C)C)CC(=O)NCCCc1ccc(Cl)cc1N3` [Compound 47, 4,6-ethanediylidenepyrimido[4,5-b][6,1,9,12]benzoxatriazacycloheptadecin-12(13H)-one, 19-chloro-10-[[[2-(dimethylamino)ethyl]methylamino]acetyl]-8,9,10,11,14,15,16,21-octahydro-22-methoxy-], the IC50 in the test with SKOV3 cells was 1580 nM; at EGFR, 126 nM.

With `COCCNCC(=O)N1CCOc2cc3c(ncnc3cc2OC)Nc2cc(Cl)ccc2CCCNC(=O)C1` [Compound 48, 4,6-ethanediylidenepyrimido[4,5-b][6,1,9,12]benzoxatriazacycloheptadecin-12(13H)-one, 19-chloro-8,9,10,11,14,15,16,21-octahydro-22-methoxy-10-[[(2-methoxyethyl)amino]acetyl]-], the IC50 is 1580 nM in the test with SKOV3 cells and 316 nM at EGFR.

`COc1cc2ncnc3c2cc1OCCN(C(=O)CN1CCN(C)CC1)CC(=O)NCCCc1ccc(Cl)cc1N3` [Compound 51, 4,6-ethanediylidenepyrimido[4,5-b][6,1,9,12]benzoxatriazacycloheptadecin-12(13H)-one, 19-chloro-8,9,10,11,14,15,16,21-octahydro-22-methoxy-10-[(4-methyl-1-piperazinyl)acetyl]-]: the IC50 in the test with SKOV3 cells is 398 nM.

As for `COc1cc2ncnc3c2cc1OCCCC=CCC(NC(=O)OC(C)(C)C)C(=O)NCc1ccc(Cl)cc1N3` (stereo not shown) [Compound 110, carbamic acid, (20-chloro-9,10,13,14,15,16,17,22-octahydro-23-methoxy-15-oxo-4,6-ethanediylidene-8H-pyrimido[4,5-b][6,1,15]benzoxadiazacyclooctadecin-14-yl)-, 1,1-dimethylethyl ester], the IC50 at EGFR was 3980 nM.

As to `CCC(C)C1NC(=O)COc2cc3c(ncnc3cc2OC)Nc2ccccc2CNC1=O` (stereo not shown) [Compound 124, 4,6-ethanediylidenepyrimido[4,5-b][6,1,9,12]benzoxatriazacyclopentadecine-9,12(8H,13H)-dione, 10,11,14,19-tetrahydro-20-methoxy-11-(1-methylpropyl)-], in the test on SKOV3 cells, the IC50 was 10000 nM.

`COc1cc2ncnc3c2cc1OCC(=O)NC(C)(C)C(=O)NCc1ccc(Cl)cc1N3` [Compound 132, 4,6-ethanediylidenepyrimido[4,5-b][6,1,9,12]benzoxatriazacyclopentadecine-9,12(8H,13H)-dione, 17-chloro-10,11,14,19-tetrahydro-20-methoxy-11,11-dimethyl-]: the IC50 in the test on SKOV3 cells is 10000 nM.

In the case of `COc1cc2ncnc3c2cc1OCC(=O)NCC(=O)NCc1ccccc1N3` [Compound 156, 4,6-ethanediylidenepyrimido[4,5-b][6,1,9,12]benzoxatriazacyclopentadecine-9,12(8H,13H)-dione, 10,11,14,19-tetrahydro-20-methoxy-], the IC50 in the test with SKOV3 cells was 10000 nM.

Turning to `COc1cc2ncnc3c2cc1OCC(=O)NCCC(=O)NCc1ccccc1N3` [Compound 157, 4,6-ethanediylidene-8H-pyrimido[4,5-b][6,1,9,13]benzoxatriazacyclohexadecine-9,13(10H,14H)-dione, 11,12,15,20-tetrahydro-21-methoxy-], the IC50 in the test with SKOV3 cells was 10000 nM.
